The values below come from US9796704B2, “Substituted quinazolines as receptor-type kinase inhibitors” (Symphony Evolution, Inc., priority 2002, dated 2017).

For experiment [1], the target named is KDR (Homo sapiens (Human), UniProt P35968). As to the kind of experiment: KDR kinase inhibition, luciferase-coupled chemiluminescent assay (LCCA). Particulars: read-out: KDR IC50.
Procedure: (§1) Kinase activity and compound inhibition are investigated using one or more of the three assay formats described below. The ATP concentrations are selected near its Michaelis-Menten constant (KM) for each individual kinase. Dose-response experiments are performed at ten different inhibitor concentrations in a 384-well plate format. […] Typically H is close to unity.
(§2) In the LCCA assays, kinase activity is measured by the ATP consumption that is accurately measured by luciferase-coupled chemiluminescence. Greiner 384-well white clear bottom medium binding plates are used for LCCA. Briefly the kinase reaction is initiated by mixing compounds, ATP and kinases in a 20 μL volume. At the end of the kinase reaction, a 20 μL luciferase-luciferin mix is added and the chemiluminescent signal is read on a Wallac Victor^2 reader.
Experiment [2] deals with EGFR (Homo sapiens (Human), UniProt P00533). As to the kind of experiment: EGFR kinase inhibition, luciferase-coupled chemiluminescent assay (LCCA). Particulars: read-out: EGFR IC50.
Experiment [3] concerns the target EphA2 (Homo sapiens (Human), UniProt P29317). As to the kind of experiment: EphA2 kinase inhibition, luciferase-coupled chemiluminescent assay (LCCA). Particulars: read-out: EphA2 IC50.
Procedure: as §1, §2
In experiment [4] the target is EphB4 (Homo sapiens (Human), UniProt P54760). As to the kind of experiment: EphB4 kinase inhibition, 33P phosphoryl transfer assay (radiometric). It is filed as biochemical.
EphB4, sequence (P54760 605-890): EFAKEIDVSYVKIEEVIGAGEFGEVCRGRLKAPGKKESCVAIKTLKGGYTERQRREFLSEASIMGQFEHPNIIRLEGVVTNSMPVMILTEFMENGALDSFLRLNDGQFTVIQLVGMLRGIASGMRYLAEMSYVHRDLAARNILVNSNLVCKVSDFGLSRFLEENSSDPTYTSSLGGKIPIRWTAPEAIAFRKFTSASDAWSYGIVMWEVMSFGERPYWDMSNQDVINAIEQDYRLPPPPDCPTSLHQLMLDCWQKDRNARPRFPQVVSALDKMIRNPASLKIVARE

EphA2, sequence (P29317 598-890): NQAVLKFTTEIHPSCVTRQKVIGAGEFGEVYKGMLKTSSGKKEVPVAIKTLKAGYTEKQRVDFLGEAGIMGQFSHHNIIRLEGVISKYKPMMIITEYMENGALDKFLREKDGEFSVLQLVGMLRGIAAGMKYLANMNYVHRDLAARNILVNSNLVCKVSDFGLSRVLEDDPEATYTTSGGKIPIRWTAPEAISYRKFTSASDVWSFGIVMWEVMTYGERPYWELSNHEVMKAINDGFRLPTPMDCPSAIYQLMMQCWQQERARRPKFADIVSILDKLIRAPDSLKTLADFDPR
KDR, sequence (P35968 807-1356): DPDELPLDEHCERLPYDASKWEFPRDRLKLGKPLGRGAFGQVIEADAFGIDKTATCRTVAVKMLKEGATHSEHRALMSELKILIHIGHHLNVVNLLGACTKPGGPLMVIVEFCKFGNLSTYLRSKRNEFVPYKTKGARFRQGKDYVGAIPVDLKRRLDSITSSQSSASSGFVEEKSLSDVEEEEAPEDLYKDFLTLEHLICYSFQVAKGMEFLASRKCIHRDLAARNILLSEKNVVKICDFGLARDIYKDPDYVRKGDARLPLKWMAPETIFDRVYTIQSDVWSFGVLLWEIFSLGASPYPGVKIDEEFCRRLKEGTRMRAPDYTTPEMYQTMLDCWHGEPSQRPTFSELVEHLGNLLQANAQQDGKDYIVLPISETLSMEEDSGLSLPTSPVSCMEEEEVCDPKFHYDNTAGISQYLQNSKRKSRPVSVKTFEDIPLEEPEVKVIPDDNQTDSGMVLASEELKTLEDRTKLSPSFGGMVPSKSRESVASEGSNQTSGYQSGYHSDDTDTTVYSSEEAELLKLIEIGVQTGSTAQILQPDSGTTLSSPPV

The term IC50 denotes the concentration that gives 50% inhibition. `COc1cc2c(Nc3ccc(Br)c(Cl)c3)ncnc2cc1O[C@H]1CO[C@H]2[C@@H]1OC[C@@H]2OC(F)F` [Example 70, 1,4:3,6-dianhydro-2-O-[4-[(4-bromo-3-chlorophenyl)amino]-6-(methyloxy)quinazolin-7-yl]-5-O-(difluoromethyl)-L-iditol]: the IC50 is < 50 nM in experiment [1], < 50 nM in experiment [2], 50 to 1000 nM in experiment [3] and 50 to 1000 nM in experiment [4].
As to `COc1cc2c(Nc3ccc(Br)c(Cl)c3)ncnc2cc1O[C@H]1CO[C@@H]2[C@@H](OC)[C@H](OC)O[C@@H]21` [Example 79, methyl 3,6-anhydro-5-O-[4-[(4-bromo-3-chlorophenyl)amino]-6-(methyloxy)quinazolin-7-yl]-2-O-methyl-alpha-L-idofuranoside], the 50% inhibitory concentration (IC50) in experiment [1], in experiment [2], in experiment [3] and in experiment [4] was < 50 nM in each case.
For `COc1cc2c(Nc3ccc(F)c(C(F)(F)F)c3)ncnc2cc1O[C@@H]1CO[C@@H]2[C@H]1OC[C@H]2F` [Example 89, 1,4:3,6-dianhydro-2-deoxy-2-fluoro-5-O-[4-{[4-fluoro-3-(trifluoromethyl)phenyl]amino}-6-(methyloxy)quinazolin-7-yl]-D-iditol], the IC50 in experiment [1], in experiment [2] and in experiment [3] was < 50 nM each time.
`COc1cc2c(Nc3cc(F)cc(F)c3)ncnc2cc1O[C@@H]1CO[C@@H]2[C@H]1OC[C@H]2F` [Example 94, 1,4:3,6-dianhydro-2-deoxy-5-O-[4-[(3,5-difluorophenyl)amino]-6-(methyloxy)quinazolin-7-yl]-2-fluoro-D-iditol]: the IC50 in experiment [1], in experiment [2], in experiment [3] and in experiment [4] was < 50 nM in each case.
As for `COc1cc2c(Nc3ccc(Br)cc3Cl)ncnc2cc1O[C@@H]1CO[C@@H]2[C@H]1OC[C@H]2F` [Example 96, 1,4:3,6-dianhydro-5-O-[4-[(4-bromo-2-chlorophenyl)amino]-6-(methyloxy)quinazolin-7-yl]-2-deoxy-2-fluoro-D-iditol], the IC50 in experiment [1], in experiment [2], in experiment [3] and in experiment [4] was < 50 nM in each case.
Regarding `COc1cc2c(Nc3ccc(Cl)c(Cl)c3F)ncnc2cc1O[C@@H]1CO[C@@H]2[C@H]1OC[C@H]2F` [Example 97, 1,4:3,6-dianhydro-2-deoxy-5-O-[4-[(3,4-dichloro-2-fluorophenyl)amino]-6-(methyloxy)quinazolin-7-yl]-2-fluoro-D-iditol], the IC50 in experiment [1], in experiment [2] and in experiment [4] was < 50 nM throughout.
Consider `COc1cc2c(Nc3cc(Cl)c(Br)cc3F)ncnc2cc1O[C@@H]1CO[C@@H]2[C@H]1OC[C@H]2F` [Example 98, 1,4:3,6-dianhydro-5-O-[4-[(4-bromo-5-chloro-2-fluorophenyl)amino]-6-(methyloxy)quinazolin-7-yl]-2-deoxy-2-fluoro-D-iditol], for which the IC50 in experiment [1], in experiment [2], in experiment [3] and in experiment [4] was < 50 nM each time.
Regarding `COc1cc2c(Nc3cc(F)c(F)cc3F)ncnc2cc1O[C@@H]1CO[C@@H]2[C@H]1OC[C@H]2F` [Example 99, 1,4:3,6-dianhydro-2-deoxy-2-fluoro-5-O-{6-(methyloxy)-4-[(2,4,5-trifluorophenyl)amino]quinazolin-7-yl}-D-iditol], the IC50 in experiment [1], in experiment [2], in experiment [3] and in experiment [4] was < 50 nM in each case.
Turning to `COc1cc2c(Nc3cc(F)c(Br)c(Cl)c3)ncnc2cc1O[C@@H]1CO[C@@H]2[C@H]1OC[C@H]2F` [Example 104, 1,4:3,6-dianhydro-5-O-[4-[(4-bromo-3-chloro-5-fluorophenyl)amino]-6-(methyloxy)quinazolin-7-yl]-2-deoxy-2-fluoro-D-iditol], the IC50 in experiment [1], in experiment [2] and in experiment [4] was < 50 nM in each case.
Take `COc1cc2c(Nc3ccc(Cl)c(Cl)c3Cl)ncnc2cc1O[C@@H]1CO[C@@H]2[C@H]1OC[C@H]2F` [Example 106, 1,4:3,6-dianhydro-2-deoxy-2-fluoro-5-O-{6-(methyloxy)-4-[(2,3,4-trichlorophenyl)amino]quinazolin-7-yl}-D-iditol]: the IC50 in experiment [1], in experiment [2], in experiment [3] and in experiment [4] was < 50 nM in each case.
In the case of `COc1cc2c(Nc3cc(Cl)c(Cl)c(Cl)c3)ncnc2cc1O[C@@H]1CO[C@@H]2[C@H]1OC[C@H]2F` [Example 107, 1,4:3,6-dianhydro-2-deoxy-2-fluoro-5-O-{6-(methyloxy)-4-[(3,4,5-trichlorophenyl)amino]quinazolin-7-yl}-D-iditol], the IC50 in experiment [1], in experiment [2], in experiment [3] and in experiment [4] was < 50 nM throughout.
Regarding `COc1cc2c(Nc3ccc(Br)cc3F)ncnc2cc1O[C@@H]1CO[C@@H]2[C@H]1OC[C@H]2F` [Example 108, 1,4:3,6-dianhydro-5-O-[4-[(4-bromo-2-fluorophenyl)amino]-6-(methyloxy)quinazolin-7-yl]-2-deoxy-2-fluoro-D-iditol], the half-maximal inhibitory concentration (IC50) in experiment [1], in experiment [2], in experiment [3] and in experiment [4] was < 50 nM in each case.
In the case of `COc1cc2c(Nc3ccc(C(F)(F)F)cc3Br)ncnc2cc1O[C@@H]1CO[C@@H]2[C@H]1OC[C@H]2F` [Example 125, 1,4:3,6-dianhydro-5-O-[4-{[2-bromo-4-(trifluoromethyl)phenyl]amino}-6-(methyloxy)quinazolin-7-yl]-2-deoxy-2-fluoro-D-iditol], the IC50 in experiment [1], in experiment [2], in experiment [3] and in experiment [4] was < 50 nM throughout.
Turning to `COc1cc2c(Nc3ccc(Cl)c(Cl)c3)ncnc2cc1OCc1noc(CN(C)C)n1` [Example 138, N-(3,4-dichlorophenyl)-7-[({5-[(dimethylamino)methyl]-1,2,4-oxadiazol-3-yl}methyl)oxy]-6-(methyloxy)quinazolin-4-amine], the IC50 in experiment [1], in experiment [2] and in experiment [4] was < 50 nM throughout.
`COc1cc2c(Nc3ccc(Cl)c(Cl)c3)ncnc2cc1OCc1nc(CN2CCN(C)CC2)no1` [Example 140, N-(3,4-dichlorophenyl)-6-(methyloxy)-7-[({3-[(4-methylpiperazin-1-yl)methyl]-1,2,4-oxadiazol-5-yl}methyl)oxy]quinazolin-4-amine]: the IC50 in experiment [1], in experiment [2] and in experiment [4] was < 50 nM in each case.
On to `COc1cc2c(Nc3ccc(Cl)c(Cl)c3)ncnc2cc1OCC1CN(C(=O)OC(C)(C)C)CCO1` (centres unmarked) [Example 148, 1,1-dimethylethyl 2-({[4-[(3,4-dichlorophenyl)amino]-6-(methyloxy)quinazolin-7-yl]oxy}methyl)morpholine-4-carboxylate], for which the IC50 in experiment [1], in experiment [2] and in experiment [4] was < 50 nM in each case.
As to `COc1cc2c(Nc3ccc(Cl)c(Cl)c3)ncnc2cc1OCC1CN(C)CCCO1` (centres unmarked) [Example 155, N-(3,4-dichlorophenyl)-7-{[(4-methyl-1,4-oxazepan-2-yl)methyl]oxy}-6-(methyloxy)quinazolin-4-amine], the IC50 in experiment [1], in experiment [2] and in experiment [4] was < 50 nM in each case.
As to `COc1cc2c(Nc3ccc(Cl)c(Cl)c3)ncnc2cc1OCc1noc(C)c1-c1ccccc1` [Example 161, N-(3,4-dichlorophenyl)-6-(methyloxy)-7-{[(5-methyl-4-phenylisoxazol-3-yl)methyl]oxy}quinazolin-4-amine], the IC50 in experiment [1], in experiment [2] and in experiment [4] was < 50 nM throughout.
In the case of `COc1cc2c(Nc3ccc(Cl)c(Cl)c3)ncnc2cc1OCc1noc(-c2cccc(C(F)(F)F)c2)n1` [Example 166, N-(3,4-dichlorophenyl)-6-(methyloxy)-7-[({5-[3-(trifluoromethyl)phenyl]-1,2,4-oxadiazol-3-yl}methyl)oxy]quinazolin-4-amine], the concentration for half-maximal inhibition (IC50) in experiment [1] and in experiment [2] was < 50 nM in each case.
Take `COc1cc2c(Nc3ccc(Cl)c(Cl)c3)ncnc2cc1OCc1noc(C2CCN(C(=O)OC(C)(C)C)CC2)n1` [Example 197, 1,1-dimethylethyl 4-[3-({[4-[(3,4-dichlorophenyl)amino]-6-(methyloxy)quinazolin-7-yl]oxy}methyl)-1,2,4-oxadiazol-5-yl]piperidine-1-carboxylate]: the IC50 in experiment [1] was < 50 nM; in experiment [2], < 50 nM; in experiment [3] it was 50 to 1000 nM; in experiment [4] it was < 50 nM.
For `COc1cc2c(Nc3ccc(Cl)c(Cl)c3)ncnc2cc1OCc1nc(-c2ccncc2)cs1` [Example 203, N-(3,4-dichlorophenyl)-6-(methyloxy)-7-{[(4-pyridin-4-yl-1,3-thiazol-2-yl)methyl]oxy}quinazolin-4-amine], the IC50 in experiment [1], in experiment [2], in experiment [3] and in experiment [4] was < 50 nM each time.
As to “N-(3,4-dichlorophenyl)-6-(methyloxy)-7-{[(5-piperidin-2-yl-1,2,4-oxadiazol-3-yl)methyl]oxy}quinazolin-4-amine hydrochloride [Example 31]”, the IC50 in experiment [1], in experiment [2] and in experiment [4] was < 50 nM in each case.
